Source: patent US20090175799A1, “COLORED OR COLORABLE TOPICAL COMPOSITION FOAM” (priority 2006, published 2009)

Description: In one or more embodiments, the foamable composition includes a potent solvent, in addition to or in place of one of the hydrophobic solvents, polar solvents or emollients of the composition. A potent solvent is a solvent other than mineral oil that solubilizes a specific active agent substantially better than a hydrocarbon solvent such as mineral oil or petrolatum.

solubility in glycofurol	solubility in mineral oil [%]	solubility in dimethyl isosorbide	solubility in propylene glycol	solubility in polyethylene glycol 400 (PEG 400)	SMILES
more than 1%	< 0.01	–	–	–	CCCCC(=O)O[C@]1(C(=O)CO)[C@@H](C)C[C@H]2[C@@H]3CCC4=CC(=O)C=C[C@]4(C)[C@@]3(F)[C@@H](O)C[C@@]21C [Betamethasone valerate]
more than 1%	< 0.01	–	–	–	CCCC(=O)O[C@]1(C(=O)CO)CC[C@H]2[C@@H]3CCC4=CC(=O)CC[C@]4(C)[C@H]3[C@@H](O)C[C@@]21C [Hydrocortisone butyrate]
more than 1%	< 0.01	more than 1%	more than 1%	–	CC(=O)N1CCN(c2ccc(OCC3COC(Cn4ccnc4)(c4ccc(Cl)cc4Cl)O3)cc2)CC1 (centres unmarked) [Ketoconazole]
–	< 0.001	–	–	–	Cc1cnc(NC(=O)C2=C(O)c3ccccc3S(=O)(=O)N2C)s1 [Meloxicam]
–	< 0.01	more than 1%	–	–	Cc1ncc([N+](=O)[O-])n1CCO [Metronidazole]
more than 1%	< 0.01	more than 1%	more than 1%	more than 1%	C/C(=C\C(=O)OCCCCCCCCC(=O)O)C[C@@H]1OC[C@H](C[C@@H]2O[C@H]2[C@@H](C)[C@H](C)O)[C@@H](O)[C@H]1O [Mupirocin]
–	< 0.001	–	–	–	CC(=O)[C@H]1CC[C@H]2[C@@H]3CCC4=CC(=O)CC[C@]4(C)[C@H]3CC[C@]12C [Progesterone]
